Here are results for 2 molecules from patent US20060069080A1, “Combinations of substituted azetidinones and CB1 antagonists” (priority 2004, published 2006).

For test [1], the system named is hypercholesterolemic/diet induced obese C57BL/6 mouse. The experiment in a line: Treatment of hypercholesterolemic/diet induced obese C57BL/6 mice with ezetimibe. The format is in vivo. Particulars: 5 mg/kg/day. Here is the method:
The hypercholesterolemic/diet induced obese C57BL/6 mouse can be used to evaluate the vivo efficacy of a cholesterol absorption inhibitor, ezetimibe, in combination with a selective CB1 receptor antagonist, rimonabant. Feeding mice a “western” diet containing 45 kcal % of fat and 0.15% cholesterol diet for 21 days increased plasma cholesterol to 150 mg/dL and increased hepatic cholesteryl esters 2-fold.
Nonfasted plasma cholesterol levels were determined by a modification of the cholesterol oxidase method, in which the reagents were available in a kit form from Wako Pure Chemicals Industries, Ltd. (Osaka, Japan). Samples of liver (0.2 g) were lipid extracted. Lipid extracts were dried under nitrogen into HPLC sample vials, resuspended in hexane and injected onto a Zorbax Sil (4.6×25 cm) silica column. Chromatography was performed using an isocratic mobile phase containing 98.8% hexane and 1.2% isopropanol at a flow rate of 2 mL/min. Lipids were detected by absorbance at 206 nm and quantitated by computer integration (System Gold, Beckman) of elution profiles. Elution time for cholesteryl ester was 1.45 min. Cholesteryl ester content of liver-derived samples was derived from a standard curve constructed using known amounts of cholesteryl oleate. Cholesteryl oleate was used as the standard since this is the major cholesteryl ester species present in the liver and this specific cholesteryl ester has an extinction coefficient that approximates that of a weighted average for all the cholesteryl esters present in the liver.

The subject of test [2] is obese, hyperinsulinemic hamsters. Particulars: ezetimibe treatment; cited from earlier work.
For another test, the system named is diet-induced obese mice. To be noted: mouse, in vivo; cited from earlier work.
For another test, the system named is Diet induced obese mice. The experiment in a line: Treatment of diet induced obese C57BL/6 mice with rimonabant. The format is in vivo, mouse. Particulars: 1, 3 and 10 mg/kg p.o. once a day for 5 consecutive days; western diet 16 weeks; at all doses. On the procedure:
Plasma leptin and insulin were determined using commercially available ELISA kits (Crystal Chem and ALPCO for leptin and insulin, respectively). Whole body adiposity was determined using an NMR based method (EchoMRI, Echo Medical Inc.).

The next test has as its system patients. To be noted: cited from earlier work.

Regarding `O=C1[C@H](CC[C@H](O)c2ccc(F)cc2)[C@@H](c2ccc(O)cc2)N1c1ccc(F)cc1` [Ezetimibe, ezetimibe], the “accumulation of hepatic cholesteryl esters” value in test [1] (western diet 21 days) is reported as “completely inhibited”. Also, the hepatic cholesteryl esters in test [1] (western diet 21 days, control 12.8 mg/g) was found to be 4.6 mg/g. In addition, the plasma cholesterol levels in test [1] (western diet (45 kcal % fat, 0.15% cholesterol) for 21 days, diet control 150 mg/dL) is given as 102 mg/dL. In addition, in test [2], the body weights entry is on record as “does not appear to cause any changes”, the food consumption entry was “does not appear to cause any changes” and the plasma leptin levels result is given as “does not appear to cause any changes”.
`Cc1c(C(=O)NN2CCCCC2)nn(-c2ccc(Cl)cc2Cl)c1-c1ccc(Cl)cc1` [rimonabant]: the plasma cholesterol levels entry in the test with diet-induced obese mice was “does not appear to reduce”. Besides, in the test on Diet induced obese mice, the adiposity result is given as “significant dose dependent reduction”, the body weight entry is given as “significant dose dependent reduction”, the cumulative food intake result is given as “significant dose dependent reduction” and the plasma insulin levels entry was “significant dose dependent reduction”. In addition, in the test on Diet induced obese mice, the plasma leptin levels entry is “significant dose dependent reduction”. In the test on patients, the “serum high density lipoprotein (HDL) levels” value is “increase” and the triglyceride levels result is on record as “decrease”.
